Test results reported in paper PMC8300687, “A Fine-Tuned Lipophilicity/Hydrophilicity Ratio Governs Antibacterial Potency and Selectivity of Bifurcated Halogen Bond-Forming NBTIs” (Antibiotics, 2021).
≈ marks a conversion by molar mass, not a printed value. Like-named read-outs stand apart in the source and are kept apart here. Each block holds one compound with its values, some of them ahead of it.

Columns and labels:
[1] = target: T1, S. aureus DNA gyrase (Staphylococcus aureus, UniProt P20831); conditions: cited from earlier work
T1 construct: purchased Inspiralis (Norwich, UK)

[2] = test system: S. aureus; parameters: method as in PMID 31140866; conditions: Figure 2, previous study ref 18; cited from earlier work
[3] = test system: E. coli; parameters: method as in PMID 31140866; conditions: Figure 2, previous study ref 18; cited from earlier work
[4] = in vitro; conditions: PAMPA
Procedure: (§1) Prior to the measurements of solubility and permeability isocratic HPLC methods were developed. […] The individual method parameters for each compound are given in the Supplementary Materials Table S1.
A 96-well precoated three-layer PAMPA plates (Corning® Gentest™ Pre-coated PAMPA Plate System, Corning, NY, USA) were used according to the manufacturer’s instructions and as described previously with 300 µL of the donor solutions in the bottom compartment and 200 µL of the acceptor solution (pH 7.4 PBS) in the upper compartment at 37 °C and a 4-h incubation time. The initial and end donor solutions were injected at a 5 µL injection volume. The initial donor solutions were also diluted 100-fold and injected at a 100 µL injection volume to serve as external references for the end acceptor solutions which were injected at the same injection volume. The permeability calculations were made with a manufacturer-provided Excel spreadsheet directly from the measured peak areas accounting for the relevant dilutions and injection volumes.

[5] = Equilibrium solubility at pH 6.8; conditions: 37 °C, pH 6.8, aqueous buffer, thermodynamic from solid
Procedure: as §1
The vials were then placed in a homogenizer (Next Advance Bullet Blender, Troy, NY, USA) for 5 min ad speed setting “2” after which they were kept in a thermostated shaker (Tehtnica HeatMix, Domel, Slovenia) at 37 °C and 1200 RPM for 24 h. […] Twenty µL of these solutions were injected for the HPLC analysis by the described methods (Supplementary Materials Table S1). External standards for calibration were made in a mobile phase with 5% acetonitrile in a range of 30–90 mg/L and injected at 20 µL injection volumes.

[6] = test system: E. coli (ATCC 25922); assay: MIC broth microdilution, E. coli ATCC 25922; type: cell-based; conditions: Escherichia coli, ATCC25922; read-out: MIC E. coli (ATCC 25922)
Procedure: (§2) Antimicrobial testing was carried out by the broth microdilution method in 96-well plate format following the Clinical and Laboratory Standards Institute (CLSI) guidelines and European Committee on Antimicrobial Susceptibility Testing (EUCAST) recommendations. Bacterial suspension of specific bacterial strain equivalent to 0.5 McFarland turbidity standard was diluted with cation-adjusted Mueller Hinton broth with TES (Thermo Fisher Diagnostic, Landsmeer, The Netherlands), to obtain a final inoculum of 10^5 CFU/mL. Compounds dissolved in DMSO and inoculum were mixed together and incubated for 18–20 h at 35 °C. Suspensions of Mycobacterium sp. were prepared into a tube of Middelbrook 7H9 broth supplemented with 5% OADC (Thermo Scientific, Trek Diagnostic Systems, West Sussex, UK) and incubated for at least 10 days. After incubation the minimal inhibitory concentration (MIC) values were determined by visual inspection as the lowest dilution of compounds showing no turbidity. Tetracycline was used as a positive control on every assay plate.

[7] = test system: E. coli N43 (CGSC# 5583); assay: MIC broth microdilution, E. coli N43; type: cell-based; conditions: Escherichia coli, read-out: MIC E. coli N43 (CGSC# 5583)
Procedure: as §2

SMILES: COc1ccc2ncc(F)c(C[C@H](O)[C@@H]3CC[C@@H](NCc4cc5c(nn4)OCCS5)CO3)c2n1 [ACT3870424]
IC50 ([1]; Table S2, supplement ref 4): 0.125 µM

SMILES: COc1ccc2nccc(NC(=O)C3CCC(NCc4cnn(-c5ccccc5)c4)CC3)c2c1 (stereo not shown) [Compound 131]
IC50 ([1]; Table S2, supplement ref 1): 0.83 µM | MIC S. aureus [2]: 2 µg/mL (≈ 4.39 µM) | MIC E. coli [3]: 64 µg/mL (≈ 140 µM)

SMILES: C[C@H]1O[C@@H](O[C@H]2[C@@H](O)C[C@H](O[C@H]3[C@@H](O)C[C@H](O[C@H]4CC[C@@]5(C)[C@H](CC[C@@H]6[C@@H]5C[C@@H](O)[C@]5(C)[C@@H](C7=CC(=O)OC7)CC[C@]65O)C4)O[C@@H]3C)O[C@@H]2C)C[C@H](O)[C@@H]1O [Di goxin, digoxin, reference compound]
PAMPA permeability classification [low/high] [4]: int erm ediat e | Papp ([4]; pH 7.4): 0.58 ×10⁻⁶ cm/s | solubility thermodynamic at 24 h [5]: 52 µg/mL (≈ 66.6 µM)

SMILES: O=c1ccc2ncc(=O)n3c2n1C[C@H]3CN1CCC(NCc2cc3c(cn2)OCCC3)CC1 [Gepotidacin, reference compound]
MIC [6]: 1 µg/mL (≈ 2.23 µM) | MIC [7]: 0.016 µg/mL (≈ 0.0357 µM)

Papp at 4 h [4]: > 2.7 ×10⁻⁶ cm/s | Papp at 4 h ([4]; pH 7.4): 4.2 ×10⁻⁶ cm/s | solubility thermodynamic at 24 h [5]: 30400 µg/mL (≈ 114000 µM)
SMILES: COCCc1ccc(OCC(O)CNC(C)C)cc1 (stereo not shown) [Metoprolol, metoprolol, reference compound]

SMILES: Cn1c(=O)c2[nH]cnc2n(C)c1=O [Theophylli n, theophylline, reference compound]
solubility thermodynamic at 24 h [5]: 8220 µg/mL (≈ 45600 µM)
